Source: PubChem BioAssay AID1996
≈ marks a conversion by molar mass, not a printed value.

details: buffer; pH 7.4; 200.0 µM

Row | SMILES | solubility kinetic
1 | Cc1ccc(C(=O)NCCc2nnc(SCC(=O)Nc3cccc(C(=O)O)c3)n2C)cc1 | > 68 µg/mL
2 | CCOC(=O)Nc1cc(NC(=O)OCC)c(C)nc1C | > 42.2 µg/mL
3 | CC(C)c1ccc(-n2ccnc2SCC(=O)O)cc1 | > 41.5 µg/mL
4 | COc1ccccc1CC(=O)Nc1sc2c(c1C(N)=O)CCCC2 | 2 µg/mL (≈ 5.81 µM)
5 | O=C(CN1C(=O)NC2(CCCCCCC2)C1=O)Nc1cccc(Br)c1 | 8.2 µg/mL (≈ 20.1 µM)
6 | COc1ccccc1NC(=O)CN1CCSc2ccccc21 | 3.1 µg/mL (≈ 9.86 µM)
7 | Cc1ccsc1C(=O)OCC(=O)c1cc(C)n(C)c1C | 3.7 µg/mL (≈ 12.7 µM)
8 | O=C(Oc1ccccc1)N1CCN(c2ccccc2F)CC1 | 39.5 µg/mL (≈ 132 µM)
9 | COc1cc(C(=O)Oc2cccnc2)cc(OC)c1OC.Cl | > 48.9 µg/mL
10 | CNC(=O)O/N=C(\N)Cc1csc2ccc(Cl)cc12 | 44.1 µg/mL (≈ 148 µM)
11 | CN(C)/C=C1\SC(=S)N(c2ccc(F)cc2)C1=O | 12.6 µg/mL (≈ 44.6 µM)
12 | COC(=O)c1ccc(S(=O)(=O)c2ccc([N+](=O)[O-])cc2)cc1 | 0.9 µg/mL (≈ 2.8 µM)
13 | CCNC(=S)N1CCC(n2cnc3ccccc32)CC1 | > 43.3 µg/mL
14 | C=CCNC(=S)Nc1ccc(C)cc1[N+](=O)[O-] | > 37.7 µg/mL
15 | CC1=CC=CC2=NC(=O)CC(C)(C(=O)O)N12 (configuration not stated) | > 33 µg/mL
16 | CCc1ccccc1NC(=S)N(Cc1cccs1)C1CCCC1 | 13.9 µg/mL (≈ 40.3 µM)
17 | CCOC(=O)/C(C#N)=C/Nc1ccccc1OC(F)(F)F | 1.2 µg/mL (≈ 4 µM)
18 | CC1CCC(NC(=O)C(C)N2C(=O)C3CCCCC3C2=O)CC1 (configuration not stated) | > 48.1 µg/mL
19 | C=CCn1c(N)cc(=O)nc1SCC(=O)Nc1ccc(C)cc1 | 14.8 µg/mL (≈ 44.8 µM)
20 | CC(C)(C)C(=O)N(Cc1ccccc1)c1ccccn1 | 40.2 µg/mL (≈ 150 µM)
21 | CC(=O)NCCc1nc2cc(NC(=O)c3cccc([N+](=O)[O-])c3)ccc2n1C | 3.5 µg/mL (≈ 9.18 µM)
22 | Cn1c(=O)c2ccccc2n(Cc2cccc(F)c2)c1=O | 3.6 µg/mL (≈ 12.7 µM)
23 | CC(C(c1cccs1)c1c(N)n(C)c(=O)n(C)c1=O)[N+](=O)[O-] (configuration not stated) | > 48.7 µg/mL
24 | N#C/C(=C/c1ccc(O)c(O)c1)C(=O)NCc1ccc(Cl)cc1 | 44.9 µg/mL (≈ 137 µM)

Row | SMILES | solubility kinetic
25 | O=C(OCc1ccccc1F)c1cnc(Cl)c(Cl)c1 | 1.6 µg/mL (≈ 5.33 µM)
26 | CC(=O)c1cccc(NC(=O)CN(C)S(=O)(=O)c2ccccc2)c1 | > 52 µg/mL
27 | CCOC(=O)C1CCN(S(=O)(=O)c2ccccc2)CC1 | > 44.6 µg/mL
28 | O=C(COc1ccccc1)NC1CCCCCCC1 | 36.2 µg/mL (≈ 139 µM)
29 | Cc1ccc(C)c(NC(=S)N(CCc2ccncc2)C(C)C)c1 | > 49.1 µg/mL
30 | O=C(Nc1cccc([N+](=O)[O-])c1)Nc1ccc2c(c1)OCCO2 | 0.4 µg/mL (≈ 1.27 µM)
31 | O=C(CSc1nc2sc3c(c2c(=O)[nH]1)CCC3)NCCO | > 48.8 µg/mL
32 | COc1cc2c(cc1OC)CN(c1ncccc1[N+](=O)[O-])CC2 | 5.6 µg/mL (≈ 17.8 µM)
33 | Clc1ccc(-c2nc(-c3ccncc3)no2)c(Cl)c1 | < 0.2 µg/mL
34 | Cc1cc(Nc2cccc(Cl)c2Cl)n2ncnc2n1 | > 44.1 µg/mL
35 | CC(C)CNC(=O)COC(=O)C1c2ccccc2Oc2ccccc21 | 41.4 µg/mL (≈ 122 µM)
36 | CCCN1C(=O)C(O)(C2COC(C)(C)CC2=O)c2ccccc21 (configuration not stated) | 33.7 µg/mL (≈ 106 µM)
37 | COc1ccc(C(=O)O/N=C(\N)c2ccccn2)c(OC)c1 | > 45.2 µg/mL
38 | O=C(c1ccc(S(=O)(=O)Nc2ccccc2)cc1)N1CCC1 | > 47.5 µg/mL
39 | CC(C)[C@H](NC(=O)c1ccccc1)C(=O)OCC(=O)NCc1ccc2c(c1)OCO2 | > 61.9 µg/mL
40 | COc1ccc2oc(=N)c(C(=O)Nc3cccc(C)c3C)cc2c1 | < 0.3 µg/mL
41 | Cc1nc2cc(NC(=O)Nc3ccccc3Cl)ccc2n1C | 7.4 µg/mL (≈ 23.5 µM)
42 | Cc1cc(C(=O)Nc2ccc(Cl)cc2)c2ccccc2n1 | < 0.3 µg/mL
43 | CSc1nc2sc3c(c2c(=O)[nH]1)CC(C)(C)OC3 | 13.9 µg/mL (≈ 49.2 µM)
44 | O=[N+]([O-])c1ccc(NC(=S)N2CCc3ccccc32)cc1 | 3.9 µg/mL (≈ 13 µM)
45 | CCN(CC)c1nc2c(c(=O)[nH]c(=O)n2C)n1Cc1ccccc1 | 30.5 µg/mL (≈ 93.2 µM)
46 | Nc1cccc(C(=O)NCCNC(=O)c2cccc(N)c2)c1 | > 44.8 µg/mL
47 | Cc1ccc2oc(C(=O)N3CCN(C)C[C@@H]3C(C)C)c(C)c2c1 | 34.3 µg/mL (≈ 109 µM)
48 | Cc1ccc(S(=O)(=O)N2CCN(C)CC2)c2nsnc12 | > 46.9 µg/mL

Row | SMILES | solubility kinetic
49 | Cc1nc(C)c(C(=O)C2=C(O)C(=O)N(CCN(C)C)C2c2ccco2)s1 (configuration not stated) | > 56.3 µg/mL
50 | CC(=O)OCc1c(C)cc(C)c(/C=C(/C#N)C(N)=O)c1C | > 42.9 µg/mL
51 | O=C(OCc1cccc([N+](=O)[O-])c1)c1cc2ccccc2oc1=O | < 0.7 µg/mL
52 | COc1ccccc1C(=O)N(Cc1ccccc1)c1ccc(C)cc1 | 24.1 µg/mL (≈ 72.7 µM)
53 | Cc1ccsc1CNC(=O)c1c(-c2ccccc2)noc1C | 22.2 µg/mL (≈ 71.1 µM)
54 | Cc1ccc(C(=O)NCCc2ccccc2)cc1 | 27.4 µg/mL (≈ 114 µM)
55 | Oc1ccc(NCc2cccs2)cc1 | 26.5 µg/mL (≈ 129 µM)
56 | CCc1c(C)sc(NC(=S)Nc2cccnc2)c1C(=O)OC | > 50.3 µg/mL
57 | COc1cccc(C(=O)c2c[nH]c(C(=O)NCCCN(C)C)c2)c1 | > 49.4 µg/mL
58 | Cc1[nH]c2ccc(C(=O)N3CCN(Cc4ccccc4)CC3)cc2c1C | > 52.1 µg/mL
59 | O=C(Nc1cccc(C(=O)N2CCCc3ccccc32)c1)c1ccccc1 | 17.2 µg/mL (≈ 48.3 µM)
60 | O=C(Nc1cc(S(=O)(=O)N2CCOCC2)ccc1N1CCOCC1)c1ccccc1[N+](=O)[O-] | > 71.5 µg/mL
61 | COc1ccc(CCNc2nc(-c3ccc(O)cc3)cs2)cc1OC | 29.2 µg/mL (≈ 81.9 µM)
62 | O=C(Nc1ccc2nc3n(c(=O)c2c1)CCCC3)c1ccccc1F | 48 µg/mL (≈ 142 µM)
63 | CC(C)(C)c1ccc(S(=O)(=O)NCc2ccccn2)cc1 | 44.1 µg/mL (≈ 145 µM)
64 | CC(=O)Nc1cccc(C(=O)/C=C/c2ccc[nH]2)c1 | > 38.1 µg/mL
65 | O=C1SC(Cc2ccccc2)C(=O)N1c1ccccc1 (configuration not stated) | 6.1 µg/mL (≈ 21.5 µM)
66 | Cl.Clc1ccc(Cn2c(CN3CCCC3)nc3ccccc32)cc1 | 49.5 µg/mL
67 | Cc1cccc(C)c1OP(N)(=O)Oc1c(C)cccc1C | 10.8 µg/mL (≈ 35.4 µM)
68 | Cc1nccn1CCC(=O)Nc1ccc(Cl)cc1 | > 39.6 µg/mL
69 | COc1ccc(OCCNC(=O)/C=C/c2ccccc2)cc1 | 4.9 µg/mL (≈ 16.5 µM)
70 | CNC(=O)Cn1c(C)cc(=O)c2cccc(C)c21 | > 36.6 µg/mL
71 | Cc1nc(-c2cccs2)sc1C(=O)O | > 33.8 µg/mL
72 | COc1cccc(C(=O)NC2CCNCC2)c1 | 31.4 µg/mL (≈ 134 µM)

Row | SMILES | solubility kinetic
73 | Cc1nc2c(C#N)c[nH]n2c(=O)c1CCO | > 32.7 µg/mL
74 | CC(C)(C)C1COc2ccccc2N1C(=O)c1cccc(Cl)c1 (configuration not stated) | < 0.7 µg/mL
75 | CC(C)CC(=O)N1CCN(Cc2cccc([N+](=O)[O-])c2)CC1 | 33.2 µg/mL (≈ 109 µM)
76 | CCC/C(O)=C1\C(=O)CCCC1=NCCc1c(C)[nH]c2ccc(C)cc12 | 0.4 µg/mL (≈ 1.13 µM)
77 | CN(C)C(=O)c1ccc(NC(=O)c2sccc2-c2ccccc2)cc1 | 49.1 µg/mL (≈ 140 µM)
78 | NS(=O)(=O)c1cccc(NC(=O)COC(=O)c2cc([N+](=O)[O-])ccc2N2CCCC2)c1 | 9.7 µg/mL (≈ 21.6 µM)
79 | O=C1Nc2ccccc2/C1=C\C(=O)c1ccccc1 | 5.1 µg/mL (≈ 20.5 µM)
80 | Cc1ccc(NS(=O)(=O)c2ccc(NC(=O)c3ccccc3C(=O)O)cc2)c(C)c1 | > 63.7 µg/mL
81 | Cc1cc(C(=O)OCC(=O)NC2CC2)c2ccccc2n1 | > 42.6 µg/mL
82 | O=C(COC(=O)C1CC2CCCC(C1)C2=O)Nc1ccc(F)c(Cl)c1 (configuration not stated) | 54.9 µg/mL (≈ 149 µM)
83 | Cc1ccccc1COc1ccc(/C=C(\C#N)C(N)=O)cc1 | < 0.3 µg/mL
84 | O=C1CC(c2ccccc2)=Nc2ccc(Br)cc2N1 | 0.9 µg/mL (≈ 2.86 µM)
85 | Cn1c(=O)n(C)c2cc(S(=O)(=O)N3CCCCC3)ccc21 | > 46.4 µg/mL
86 | Cc1ccc(NC(=O)Cc2cccs2)cc1Cl | 6.1 µg/mL (≈ 23 µM)
87 | COc1ccc(CCC(C)NCc2ccc(Cl)c(Cl)c2)cc1 (configuration not stated) | 17.3 µg/mL (≈ 51.1 µM)
88 | N#C/C(=C\c1ccccc1)C(=O)OCC(=O)N1CCCC1 | > 42.6 µg/mL
89 | Cc1ccc2ccc(S(=O)(=O)NCc3ccccn3)cc2c1 | 7 µg/mL (≈ 22.4 µM)
90 | O=C(CN1C(=O)S/C(=C/c2ccncc2)C1=O)Nc1ccccc1 | 5.5 µg/mL (≈ 16.2 µM)
91 | COc1cc2cc(-c3ccc(OC)c(OC)c3C)nc(N)c2cc1OC | 46.8 µg/mL (≈ 132 µM)
92 | CC(C)(C)Nc1c(-c2cccs2)nc2ccccn12 | 33.4 µg/mL (≈ 123 µM)
93 | CC(=O)O[C@H](CC(=O)O)C[N+](C)(C)C.[Cl-] | > 36 µg/mL
94 | CC1CC(C)(C)Nc2ccc(N=O)cc21 (configuration not stated) | > 30.6 µg/mL
95 | COc1ccc(-n2c(-c3ccccc3)nc3ccccc3c2=O)cc1 | 3.3 µg/mL (≈ 10 µM)
96 | Cc1ccc2[nH]cc(/C=C/c3cc[n+](C)cc3)c2c1.[I-] | > 56.4 µg/mL

Row | SMILES | solubility kinetic
97 | CN(CC(=O)O)S(=O)(=O)c1ccc2c(c1)n(C)c(=O)c(=O)n2C | > 51.2 µg/mL
98 | Cc1ccc(NC(=O)Cn2cnc([N+](=O)[O-])c2)cc1C | > 41.1 µg/mL
99 | O=C(/C=C/c1ccccc1)N(Cc1cccc(Cl)c1)C1CCS(=O)(=O)C1 (configuration not stated) | 14.1 µg/mL (≈ 36.2 µM)
100 | O=C(O)C1C2CCC(O2)C1C(=O)Nc1ccccc1Br (configuration not stated) | > 51 µg/mL
101 | CCC(C)(CCNC(=O)Cc1ccccc1)c1ccccc1OC (configuration not stated) | 15 µg/mL (≈ 46.1 µM)
102 | O=C1/C(=C/c2cccnc2)SC(=S)N1c1ccc(O)cc1 | 0.9 µg/mL (≈ 2.86 µM)
103 | CCCc1cnc(N2CCN(C(=O)c3c(-c4ccccc4)noc3C)CC2)nc1 | 40.7 µg/mL (≈ 104 µM)
104 | Cc1cc2c3c(c1)C(C)CC(C)(C)N3C(=O)C2=C(C#N)C#N (configuration not stated) | 0.6 µg/mL (≈ 2.06 µM)
105 | NC1=NC(=O)/C(=C/c2cccc(F)c2)S1 | 2.7 µg/mL (≈ 12.1 µM)
106 | Cc1cc(NC(=O)COc2ccc(F)c(Cl)c2)no1 | 4.8 µg/mL (≈ 16.9 µM)
107 | CCOC(=O)COc1c(Cl)cc(/C=C2\N=C(C)OC2=O)cc1OC | 46.5 µg/mL (≈ 131 µM)
108 | CC(C)Oc1ccc(CC2(CCc3ccncc3)C(=O)NC(=O)NC2=O)cc1 | 7.7 µg/mL (≈ 20.2 µM)
109 | CCCN1CCN(CC(=O)Nc2nc3ccccc3s2)CC1 | 0.6 µg/mL (≈ 1.88 µM)
110 | CC1CCN(C(=O)c2ccc(S(=O)(=O)N3CCOCC3)cc2)CC1 | 43.2 µg/mL (≈ 123 µM)
111 | O=C(c1cccc(Br)c1)N1CCN(c2ccccn2)CC1 | > 51.9 µg/mL
112 | CCCCOc1ccc(Cn2c(=O)oc3ccccc32)cc1 | < 0.6 µg/mL
113 | COc1ccc(NC(=O)CSCc2ccc(C#N)cc2)c(OC)c1 | > 51.4 µg/mL
114 | CCOC(=O)/C(C#N)=C/C=C1\C=Cc2ccccc2N1CC | 0.7 µg/mL (≈ 2.38 µM)
115 | Cc1cc2nc3c(=O)[nH]c(=S)[nH]c3nc2cc1NC(=O)C(F)(F)F | 26.8 µg/mL (≈ 75.4 µM)
116 | CN(C)c1ccc(C=NCCc2ccc(S(N)(=O)=O)cc2)cc1 | 37.1 µg/mL (≈ 112 µM)
117 | CC1CCC(NC(=O)CSc2nncs2)CC1 (configuration not stated) | > 40.7 µg/mL
